Test results reported in ChEMBL document CHEMBL5678816, “A Next-Generation TRK Kinase Inhibitor Overcomes Acquired Resistance to Prior TRK Kinase Inhibition in Patients with TRK Fusion-Positive Solid Tumors” (Cancer Discov, 2017).
Activity calls are given as the source filed them. The rule behind the calls is not given here.

Experiments:
[1] = Toxicity in nu/nu NCr mouse xenografted with human KM12 cells harboring TPM3-TRKA fusion protein assessed as body weight loss at 30 to 300 mg/kg, po administered twice daily for 11 days relative to control; assay type: organism-based; conditions: in vivo, 264 h, dose 30-300 mg/kg, time 11 day
[2] = target: Maternal embryonic leucine zipper kinase (Homo sapiens) (UniProt Q14680); experiment: Inhibition of MELK (unknown origin) at 1 uM in presence of ATP relative to control; values are per cent of control
KG-1 = experiment: Inhibition of cell proliferation in human KG-1 cells upto 10 umol/L incubated for 72 hrs by DAPI staining based analysis; assay type: functional; conditions: dose <= 10.0 µmol/L
TT = experiment: Inhibition of cell proliferation in human TT cells upto 10 umol/L incubated for 72 hrs by DAPI staining based analysis; assay type: functional; conditions: dose <= 10.0 µmol/L
[3] = target: Mitogen-activated protein kinase 1 (Homo sapiens) (UniProt P28482); experiment: Inhibition of ERK2 (unknown origin) at 1 uM in presence of ATP relative to control; values are per cent of control
Homo sapiens [4] = organism: Homo sapiens; experiment: Inhibition of PKCgamma (unknown origin) at 1 uM in presence of ATP relative to control; values are per cent of control
J82 = experiment: Inhibition of cell proliferation in human J82 cells upto 10 umol/L incubated for 72 hrs by DAPI staining based analysis; assay type: functional; conditions: dose <= 10.0 µmol/L
[5] = target: Mitogen-activated protein kinase kinase kinase kinase 2 (Homo sapiens) (UniProt Q12851); experiment: Inhibition of MAP4K2 (unknown origin) at 1 uM in presence of ATP relative to control; values are per cent of control
[6] = target: Protein-tyrosine kinase 2-beta (Homo sapiens) (UniProt Q14289); experiment: Inhibition of FAK2 (unknown origin) at 1 uM in presence of ATP relative to control; values are per cent of control
[7] = target: Serine/threonine-protein kinase MRCK alpha (Homo sapiens) (UniProt Q5VT25); experiment: Inhibition of MRCKalpha (unknown origin) at 1 uM in presence of ATP relative to control; values are per cent of control
[8] = target: Serine/threonine-protein kinase Nek3 (Homo sapiens) (UniProt P51956); experiment: Inhibition of NEK3 (unknown origin) at 1 uM in presence of ATP relative to control; values are per cent of control
[9] = target: G protein-coupled receptor kinase 6 (Homo sapiens) (UniProt P43250); experiment: Inhibition of GRK6 (unknown origin) at 1 uM in presence of ATP relative to control; values are per cent of control
SCC-9 = experiment: Inhibition of cell proliferation in human SCC-9 cells upto 10 umol/L incubated for 72 hrs by DAPI staining based analysis; assay type: functional; conditions: dose <= 10.0 µmol/L
[10] = target: Inhibitor of nuclear factor kappa-B kinase subunit beta (Homo sapiens) (UniProt O14920); experiment: Inhibition of IKKbeta (unknown origin) at 1 uM in presence of ATP relative to control; values are per cent of control
DMS-53 = experiment: Inhibition of cell proliferation in human DMS-53 cells upto 10 umol/L incubated for 72 hrs by DAPI staining based analysis; assay type: functional; conditions: dose <= 10.0 µmol/L
[11] = target: Serine/threonine-protein kinase Nek7 (Homo sapiens) (UniProt Q8TDX7); experiment: Inhibition of NEK7 (unknown origin) at 1 uM in presence of ATP relative to control; values are per cent of control
[12] = target: Phosphorylase b kinase gamma catalytic chain, liver/testis isoform (Homo sapiens) (UniProt P15735); experiment: Inhibition of PhKgamma2 (unknown origin) at 1 uM in presence of ATP relative to control; values are per cent of control
[13] = target: Serine/threonine-protein kinase 17A (Homo sapiens) (UniProt Q9UEE5); experiment: Inhibition of DRAK1 (unknown origin) at 1 uM in presence of ATP relative to control; values are per cent of control
[14] = target: Platelet-derived growth factor receptor beta (Homo sapiens) (UniProt P09619); experiment: Inhibition of PDGFRbeta (unknown origin) at 1 uM in presence of ATP relative to control; values are per cent of control
L-428 = experiment: Inhibition of cell proliferation in human L428 cells upto 10 umol/L incubated for 72 hrs by DAPI staining based analysis; assay type: functional; conditions: dose <= 10.0 µmol/L
CAL-62 = experiment: Inhibition of cell proliferation in human CAL-62 cells upto 10 umol/L incubated for 72 hrs by DAPI staining based analysis; assay type: functional; conditions: dose <= 10.0 µmol/L
Homo sapiens [15] = organism: Homo sapiens; experiment: Inhibition of CDK2/cyclinA (unknown origin) at 1 uM in presence of ATP relative to control; values are per cent of control
[16] = target: Ephrin type-A receptor 7 (Homo sapiens) (UniProt Q15375); experiment: Inhibition of EphA7 (unknown origin) at 1 uM in presence of ATP relative to control; values are per cent of control
[17] = target: Mitogen-activated protein kinase 11 (Homo sapiens) (UniProt Q15759); experiment: Inhibition of p38beta (unknown origin) at 1 uM in presence of ATP relative to control; values are per cent of control
[18] = target: Insulin-like growth factor 1 receptor (Homo sapiens) (UniProt P08069); experiment: Inhibition of Activated IGF-1R (unknown origin) at 1 uM in presence of ATP relative to control; values are per cent of control
[19] = target: Serine/threonine-protein kinase Chk1 (Homo sapiens) (UniProt O14757); experiment: Inhibition of CHK1 (unknown origin) at 1 uM in presence of ATP relative to control; values are per cent of control
BT-474 = experiment: Inhibition of cell proliferation in human BT-474 cells upto 10 umol/L incubated for 72 hrs by DAPI staining based analysis; assay type: functional; conditions: dose <= 10.0 µmol/L
MV4-11 = experiment: Inhibition of cell proliferation in human MV4-11 cells upto 10 umol/L incubated for 72 hrs by DAPI staining based analysis; assay type: functional; conditions: dose <= 10.0 µmol/L
NIH3T3 = experiment: In vivo inhibition of […] in nu/nu NCr mouse implanted with mouse NIH3T3 cells harboring extracellular domain deleted […] G595R mutant assessed as reduction in […] phosphorylation administered orally twice daily for 3 days and measured after 2 hrs post last dose by ELISA; assay type: functional; conditions: dose 10-100 mg/kg, route po, time 3.0 day
[20] = target: Serine/threonine-protein kinase MARK2 (Homo sapiens) (UniProt Q7KZI7); experiment: Inhibition of MARK2 (unknown origin) at 1 uM in presence of ATP relative to control; values are per cent of control

Insulin-like growth factor 1 receptor (Homo sapiens), sequence (P08069 31-736 limits assumed): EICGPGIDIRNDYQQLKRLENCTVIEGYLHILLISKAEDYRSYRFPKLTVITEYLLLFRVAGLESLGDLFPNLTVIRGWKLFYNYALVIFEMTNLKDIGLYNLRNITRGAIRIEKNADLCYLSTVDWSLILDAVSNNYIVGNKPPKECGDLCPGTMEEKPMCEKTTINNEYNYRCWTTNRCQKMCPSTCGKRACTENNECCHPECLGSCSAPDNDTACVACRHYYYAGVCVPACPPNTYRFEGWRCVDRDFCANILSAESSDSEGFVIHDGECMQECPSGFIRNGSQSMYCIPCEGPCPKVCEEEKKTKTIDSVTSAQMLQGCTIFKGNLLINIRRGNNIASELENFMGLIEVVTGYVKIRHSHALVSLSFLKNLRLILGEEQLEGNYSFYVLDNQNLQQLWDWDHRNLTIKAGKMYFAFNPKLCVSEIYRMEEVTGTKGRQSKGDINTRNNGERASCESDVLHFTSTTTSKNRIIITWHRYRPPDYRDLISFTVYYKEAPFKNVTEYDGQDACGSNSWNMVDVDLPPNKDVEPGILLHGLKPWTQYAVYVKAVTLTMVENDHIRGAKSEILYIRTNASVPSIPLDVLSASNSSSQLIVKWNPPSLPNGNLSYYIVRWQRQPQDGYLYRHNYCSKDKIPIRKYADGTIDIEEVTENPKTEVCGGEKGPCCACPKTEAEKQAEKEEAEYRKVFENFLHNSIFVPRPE
Insulin-like growth factor 1 receptor (Homo sapiens), sequence (P08069 741-1367 limits assumed): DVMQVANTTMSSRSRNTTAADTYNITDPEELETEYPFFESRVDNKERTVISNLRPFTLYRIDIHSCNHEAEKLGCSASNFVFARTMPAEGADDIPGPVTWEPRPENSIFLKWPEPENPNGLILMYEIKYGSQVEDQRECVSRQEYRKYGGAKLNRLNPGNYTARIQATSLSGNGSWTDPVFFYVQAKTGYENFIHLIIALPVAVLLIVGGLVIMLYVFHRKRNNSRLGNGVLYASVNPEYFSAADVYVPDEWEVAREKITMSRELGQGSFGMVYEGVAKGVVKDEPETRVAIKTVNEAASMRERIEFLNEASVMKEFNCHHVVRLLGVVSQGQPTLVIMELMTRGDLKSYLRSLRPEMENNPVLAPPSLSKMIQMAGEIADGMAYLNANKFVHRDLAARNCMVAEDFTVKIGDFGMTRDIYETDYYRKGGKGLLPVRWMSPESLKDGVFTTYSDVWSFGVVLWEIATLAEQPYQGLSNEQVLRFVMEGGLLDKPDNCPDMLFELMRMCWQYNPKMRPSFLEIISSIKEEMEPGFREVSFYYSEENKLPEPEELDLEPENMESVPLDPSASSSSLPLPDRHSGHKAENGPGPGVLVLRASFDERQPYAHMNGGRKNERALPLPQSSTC
Serine/threonine-protein kinase Nek7 (Homo sapiens), sequence (Q8TDX7 whole entry, looked up, canonical isoform): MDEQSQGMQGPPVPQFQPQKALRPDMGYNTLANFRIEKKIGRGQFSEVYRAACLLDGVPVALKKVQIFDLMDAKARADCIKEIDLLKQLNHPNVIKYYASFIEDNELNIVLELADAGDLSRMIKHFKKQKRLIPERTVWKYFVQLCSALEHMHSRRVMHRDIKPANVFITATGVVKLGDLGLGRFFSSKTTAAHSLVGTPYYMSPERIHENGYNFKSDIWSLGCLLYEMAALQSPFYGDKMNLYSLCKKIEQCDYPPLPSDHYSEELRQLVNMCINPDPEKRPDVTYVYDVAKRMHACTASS
Protein-tyrosine kinase 2-beta (Homo sapiens), sequence (Q14289 whole entry, looked up): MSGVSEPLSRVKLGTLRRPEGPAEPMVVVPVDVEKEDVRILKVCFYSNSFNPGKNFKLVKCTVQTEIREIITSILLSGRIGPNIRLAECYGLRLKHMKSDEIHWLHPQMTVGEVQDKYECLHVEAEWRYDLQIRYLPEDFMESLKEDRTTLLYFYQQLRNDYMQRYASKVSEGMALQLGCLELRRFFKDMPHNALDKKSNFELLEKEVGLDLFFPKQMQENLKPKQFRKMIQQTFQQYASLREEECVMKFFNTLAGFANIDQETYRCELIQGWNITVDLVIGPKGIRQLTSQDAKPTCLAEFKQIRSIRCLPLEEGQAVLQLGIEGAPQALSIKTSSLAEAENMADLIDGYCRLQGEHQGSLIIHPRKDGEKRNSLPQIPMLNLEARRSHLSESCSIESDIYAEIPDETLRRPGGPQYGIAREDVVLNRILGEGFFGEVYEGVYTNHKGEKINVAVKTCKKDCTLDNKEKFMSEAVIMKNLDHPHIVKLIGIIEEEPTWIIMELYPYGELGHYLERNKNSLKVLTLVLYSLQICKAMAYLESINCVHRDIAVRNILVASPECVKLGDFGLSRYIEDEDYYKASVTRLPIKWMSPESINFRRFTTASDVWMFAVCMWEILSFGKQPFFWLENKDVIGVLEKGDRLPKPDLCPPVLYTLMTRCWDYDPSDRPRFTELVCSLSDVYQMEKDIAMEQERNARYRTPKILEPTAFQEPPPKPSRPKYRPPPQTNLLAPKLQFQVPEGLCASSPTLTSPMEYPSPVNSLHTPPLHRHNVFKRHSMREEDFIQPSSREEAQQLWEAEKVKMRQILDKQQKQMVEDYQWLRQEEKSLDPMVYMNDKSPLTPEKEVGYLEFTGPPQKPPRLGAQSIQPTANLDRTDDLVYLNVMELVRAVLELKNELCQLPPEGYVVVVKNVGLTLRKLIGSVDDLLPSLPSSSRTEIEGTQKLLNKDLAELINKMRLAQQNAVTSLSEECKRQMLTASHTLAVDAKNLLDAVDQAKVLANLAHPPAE
Maternal embryonic leucine zipper kinase (Homo sapiens), sequence (Q14680 whole entry, looked up): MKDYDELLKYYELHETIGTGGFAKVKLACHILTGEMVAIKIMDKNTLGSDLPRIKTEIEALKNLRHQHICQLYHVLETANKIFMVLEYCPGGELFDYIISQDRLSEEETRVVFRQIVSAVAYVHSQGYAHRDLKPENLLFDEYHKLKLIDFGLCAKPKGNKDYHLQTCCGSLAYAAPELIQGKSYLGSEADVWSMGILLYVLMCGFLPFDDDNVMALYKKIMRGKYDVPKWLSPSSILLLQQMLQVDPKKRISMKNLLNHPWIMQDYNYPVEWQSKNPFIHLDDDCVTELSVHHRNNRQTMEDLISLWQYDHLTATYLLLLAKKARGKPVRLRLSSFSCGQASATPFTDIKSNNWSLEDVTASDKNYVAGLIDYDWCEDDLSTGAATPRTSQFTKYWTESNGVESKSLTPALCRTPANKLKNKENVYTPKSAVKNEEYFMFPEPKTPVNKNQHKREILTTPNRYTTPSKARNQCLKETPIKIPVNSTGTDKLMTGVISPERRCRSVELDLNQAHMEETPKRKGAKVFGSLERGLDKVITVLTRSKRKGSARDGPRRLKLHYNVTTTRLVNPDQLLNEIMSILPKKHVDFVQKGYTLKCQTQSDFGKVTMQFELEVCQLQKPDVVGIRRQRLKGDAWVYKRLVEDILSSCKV
Ephrin type-A receptor 7 (Homo sapiens), sequence (Q15375 28-998 limits assumed): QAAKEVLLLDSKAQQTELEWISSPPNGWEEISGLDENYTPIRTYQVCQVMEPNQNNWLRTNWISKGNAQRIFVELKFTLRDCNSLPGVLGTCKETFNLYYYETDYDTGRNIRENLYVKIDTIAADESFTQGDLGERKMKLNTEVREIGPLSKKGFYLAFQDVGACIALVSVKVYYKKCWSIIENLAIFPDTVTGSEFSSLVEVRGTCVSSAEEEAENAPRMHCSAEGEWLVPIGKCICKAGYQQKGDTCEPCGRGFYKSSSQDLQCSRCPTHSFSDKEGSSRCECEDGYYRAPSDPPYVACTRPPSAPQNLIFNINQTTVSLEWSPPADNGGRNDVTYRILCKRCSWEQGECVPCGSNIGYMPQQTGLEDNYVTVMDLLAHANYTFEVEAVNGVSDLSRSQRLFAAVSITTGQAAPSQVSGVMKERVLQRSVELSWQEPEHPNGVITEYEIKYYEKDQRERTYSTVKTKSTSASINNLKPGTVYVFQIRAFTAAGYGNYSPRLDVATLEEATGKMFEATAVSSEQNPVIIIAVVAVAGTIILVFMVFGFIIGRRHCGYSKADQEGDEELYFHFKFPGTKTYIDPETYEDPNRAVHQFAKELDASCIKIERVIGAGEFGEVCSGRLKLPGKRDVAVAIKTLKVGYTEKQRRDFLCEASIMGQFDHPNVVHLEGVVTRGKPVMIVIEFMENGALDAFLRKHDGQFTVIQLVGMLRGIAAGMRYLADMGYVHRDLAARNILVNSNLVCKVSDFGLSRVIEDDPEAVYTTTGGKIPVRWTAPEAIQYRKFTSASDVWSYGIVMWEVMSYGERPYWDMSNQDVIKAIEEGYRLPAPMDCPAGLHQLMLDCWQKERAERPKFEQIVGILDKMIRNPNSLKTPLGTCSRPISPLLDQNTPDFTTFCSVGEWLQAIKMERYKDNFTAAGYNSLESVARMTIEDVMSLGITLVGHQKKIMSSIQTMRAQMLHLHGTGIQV
Mitogen-activated protein kinase 1 (Homo sapiens), sequence (P28482 whole entry): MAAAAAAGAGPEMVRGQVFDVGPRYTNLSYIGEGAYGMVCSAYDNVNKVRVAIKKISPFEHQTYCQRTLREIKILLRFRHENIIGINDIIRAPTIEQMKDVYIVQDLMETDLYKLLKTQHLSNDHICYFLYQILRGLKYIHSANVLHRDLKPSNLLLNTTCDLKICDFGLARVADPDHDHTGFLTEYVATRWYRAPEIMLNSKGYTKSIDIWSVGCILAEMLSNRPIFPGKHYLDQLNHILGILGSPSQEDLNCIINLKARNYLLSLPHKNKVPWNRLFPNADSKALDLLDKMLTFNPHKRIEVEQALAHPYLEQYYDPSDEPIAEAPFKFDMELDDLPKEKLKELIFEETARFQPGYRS
Phosphorylase b kinase gamma catalytic chain, liver/testis isoform (Homo sapiens), sequence (P15735 whole entry, canonical isoform): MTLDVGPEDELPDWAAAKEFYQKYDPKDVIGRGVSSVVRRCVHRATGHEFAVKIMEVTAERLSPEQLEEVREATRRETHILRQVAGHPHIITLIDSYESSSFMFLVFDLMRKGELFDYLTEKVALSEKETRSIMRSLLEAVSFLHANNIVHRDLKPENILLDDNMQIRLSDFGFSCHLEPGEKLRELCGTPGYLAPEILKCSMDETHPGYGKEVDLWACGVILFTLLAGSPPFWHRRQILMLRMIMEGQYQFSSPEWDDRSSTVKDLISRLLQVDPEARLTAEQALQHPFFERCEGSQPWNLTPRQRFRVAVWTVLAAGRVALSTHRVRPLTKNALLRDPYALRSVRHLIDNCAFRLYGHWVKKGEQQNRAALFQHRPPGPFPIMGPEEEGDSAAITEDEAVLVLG

residual activity [2]: 104% | residual activity [3]: 105% | residual activity (Homo sapiens [4]): 97.5% | residual activity [5]: 102% | residual activity [6]: 89% | residual activity [7]: 138% | residual activity [8]: 110% | residual activity [9]: 106% | residual activity [10]: 119% | residual activity [11]: 103% | residual activity [12]: 104% | residual activity [13]: 113% | residual activity [14]: 112% | residual activity (Homo sapiens [15]): 109% | residual activity [16]: 103% | residual activity [17]: 123% | residual activity [18]: 84.5% | residual activity [19]: 109% | residual activity [20]: 107%
Compound: C[C@@H]1CCc2ncc(F)cc2[C@H]2CCCN2c2ccn3ncc(c3n2)C(=O)N1 [SELITRECTINIB]
Activity [1]: < 5% | inhibition (KG-1): inactive | inhibition (TT): inactive | inhibition (J82): inactive | inhibition (SCC-9): inactive | inhibition (DMS-53): inactive | inhibition (L-428): inactive | inhibition (CAL-62): inactive | inhibition (BT-474): inactive | inhibition (MV4-11): inactive | inhibition (NIH3T3): Dose-Dependent Effect
